The source of these data is patent US20170349638A1, “COMPANION DIAGNOSTIC TOOL FOR PEPTIDOMIMETIC MACROCYCLES” (AILERON Therapeutics, Inc., priority 2016, published 2017).

Like-named read-outs stand apart in the source and are kept apart here. Where a SMILES comes first, the peptide text is derived from it. Bridges are numbered along the chain shown (N, C = ends). [ ]: non-standard residue; d: D form. Phe(4-COOH) = N[C@@H](Cc1ccc(C(=O)O)cc1)C(=O)O; R8 = C=CCCCCCC[C@@](C)(N)C(=O)O; Cba = N[C@@H](CC1CCC1)C(=O)O; S5 = C=CCCC[C@](C)(N)C(=O)O

The subject of one series is SJSA-1 cells. The series can be described thus: Cell lysis by peptidomimetic macrocycles (LDH release). In kind it is cell-based. The conditions noted are these: 1 h incubation.
Series [1] has as its system MCF-7 breast cancer xenograft. The series can be described thus: MCF-7 breast cancer xenograft study. It is filed as in vivo, female nude (Crl:NU-Foxn1nu) mice. The conditions noted are these: for mice died during treatment: 10 mice per group. The protocol: A negative control stapled peptide. […] Slow release 90 day 0.72 mg 17β-estradiol pellets (Innovative Research, Sarasota, Fla.) were implanted subcutaneously (sc) on the nape of the neck one day prior to tumor cell implantation (Day −1). On Day 0, MCF-7 tumor cells were implanted sc in the flank of female nude (Crl:NU-Foxn1nu) mice. On Day 18, the resultant sc tumors were measured using calipers to determine their length and width and the mice were weighed. The tumor sizes were calculated using the formula (length×width^2)/2 and expressed as cubic millimeters (mm^3). Mice with tumors smaller than 85.3 mm^3 or larger than 417.4 mm^3 were excluded from the subsequent group formation. Thirteen groups of mice, 10 mice per group, were formed by randomization such that the group mean tumor sizes were essentially equivalent (mean of groups±standard deviation of groups=180.7±17.5 mm^3).
This formulation was prepared once for the duration of the study. This vehicle was used as the vehicle control in the subsequent study.
Each group was assigned to a different treatment regimen. Group 1, as the vehicle negative control group, received the vehicle administered at 8 mL/kg body weight intravenously (iv) three times per week from Days 18-39. […] Group 4 received 6.7 mg/kg SP249 as an iv injection three times per week. […] Group 9 received 30 mg/kg SP252 as an iv injection three times per week.
During the dosing period the mice were weighed and tumors measured 1-2 times per week.

In the next series the target is MDM2 (Homo sapiens, UniProt Q00987). Description: Competitive fluorescence polarization assay for MDM2. In kind it is binding. A general note: Fluorescence polarisation rises when a labelled molecule tumbles more slowly, as on binding a larger partner.
Chain of MDM2 (Q00987 1-125): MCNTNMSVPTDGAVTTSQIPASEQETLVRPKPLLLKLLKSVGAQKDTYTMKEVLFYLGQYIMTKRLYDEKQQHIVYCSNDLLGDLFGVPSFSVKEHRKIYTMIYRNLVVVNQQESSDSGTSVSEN
A further series addresses T1, MDMX (Homo sapiens, UniProt O15151).
T1 sequence (O15151 1-125): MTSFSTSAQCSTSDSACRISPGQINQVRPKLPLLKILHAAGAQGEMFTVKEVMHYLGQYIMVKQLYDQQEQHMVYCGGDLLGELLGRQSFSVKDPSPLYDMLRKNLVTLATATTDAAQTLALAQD
The series can be described thus: Competitive fluorescence polarization assay MDMX. In kind it is binding. The conditions noted are these: Table 26B; competitive FP.

Where [2] appears, read: 30 mg/kg iv three times per week.
Setting [3] is: Table 26B, competitive FP, read-out: Ki (MDM2).

Description for MDM2: Dilute 1 mM (in 100% DMSO) of FAM labeled linear peptide with DMSO to 100 μM (dilution 1:10). Then, dilute from 100 μM to 10 μM with water (dilution 1:10) and then dilute with FP buffer from 10 μM to 40 nM (dilution 1:250). This is the working solution which will be a 10 nM concentration in well (dilution 1:4). Keep the diluted FAM labeled peptide in the dark until use. • 4. […] Dilute 10 mM (in 100% DMSO) with DMSO to 5 mM (dilution 1:2). Then, dilute from 5 mM to 500 μM with H2O (dilution 1:10) and then dilute with FP buffer from 500 μM to 20 μM (dilution 1:25). […] Add 10 μl of 10 nM (4×) of FAM labeled peptide into each well and incubate for 3 hr to read.
Description for MDMX: Dilute MDMX (In-house, 40 kD) into FP buffer (High salt buffer—200 mM NaCl, 5 mM CHAPS, pH 7.5.) to make 300 nM (2×) working stock solution. • 2. Add 20 μl of 300 nM (2×) of protein stock solution into each well of 96-well black HE microplate (Molecular Devices) • 3. Dilute 1 mM (in 100% DMSO) of FAM labeled linear peptide with DMSO to 100 μM (dilution 1:10). Then, dilute from 100 μM to 10 μM with water (dilution 1:10) and then dilute with FP buffer from 10 μM to 40 nM (dilution 1:250). This is the working solution which will be a 10 nM concentration in well (dilution 1:4). Keep the diluted FAM labeled peptide in the dark until use. • 4. […] Dilute 10 mM (in 100% DMSO) with DMSO to 5 mM (dilution 1:2). Then, dilute from 5 mM to 500 μM with H2O (dilution 1:10) and then dilute with FP buffer from 500 μM to 20 μM (dilution 1:25). […] Transfer 10 μl of serial diluted unlabeled peptides to each well which is filled with 20 μl of 300 nM of protein. • 7. Add 10 μl of 10 nM (4×) of FAM labeled peptide into each well and incubate for 3 hr to read.
Description for SJSA-1 cells: On the day of the assay, media was exchanged with RPMI 1% FBS media, 90 μl of media per well.
10 mM stock solutions of the peptidomimetic macrocycles were prepared in 100% DMSO.
The negative control (non-lytic) sample was 0.5% DMSO alone and positive control (lytic) samples include 10 uM Melittin and 1% Triton X-100.
Cell plates were incubated for 1 hour at 37° C. After the 1 hour incubation, the morphology of the cells is examined by microscope and then the plates were centrifuged at 1200 rpm for 5 minutes at room temperature. 40 μl of supernatant for each peptidomimetic macrocyle and control sample is transferred to clear assay plates.

On to “413 (LTFAXYWAQLAAALA; not fully specified; Ac, NH2, staple, Cou4, Nle; N-term Ac; MOD_RES (4)..(4): Alpha-Me R-azide 1,4 triazole (6 carbon) alanine olefin amino acid connected by an all-carbon crosslinker comprising one double bond; misc_feature (4)..(11): Crosslink between residues; MOD_RES () [compound 413]”, for which, in the series on SJSA-1 cells, the “6.25 uM % Lysed cells (1 h LDH)” value is 5%, the “25 uM % Lysed cells (1 h LDH)” value was 3% and the “50 uM % Lysed cells (1 h LDH)” value came to 3%.

Turning to “414 (LTFAXYWAQLAAALA; not fully specified; Ac, NH2, staple, Cou4, Nle; N-term Ac; MOD_RES (4)..(4): Alpha-Me R-azide 1,4 triazole (6 carbon) alanine olefin amino acid connected by an all-carbon crosslinker comprising one double bond; misc_feature (4)..(11): Crosslink between residues; MOD_RES () [compound 414]”, in the series on SJSA-1 cells, the “6.25 uM % Lysed cells (1 h LDH)” value worked out at 3%, the “25 uM % Lysed cells (1 h LDH)” value was 2% and the “50 uM % Lysed cells (1 h LDH)” value is given as 2%.

In the case of `CC(=O)N[C@@H](CC(C)C)C(=O)N[C@H](C(=O)N[C@@H](Cc1ccccc1)C(=O)N[C@]1(C)CCCCCCC=CCCC[C@@](C)(C(=O)N[C@@H](CO)C(=O)N[C@@H](C)C(=O)N[C@@H](C)C(N)=O)NC(=O)[C@H](CC2CCC2)NC(=O)[C@H](CCC(N)=O)NC(=O)[C@H](C)NC(=O)[C@H](Cc2c[nH]c3ccccc23)NC(=O)[C@H](Cc2ccc(O)cc2)NC(=O)[C@H](CCC(=O)O)NC1=O)[C@@H](C)O` [SP154], in series [1] (30 mg/kg 3x/wk iv, mice), the “% BW Change” value is “+5.7%”, the “No. with ≧10% BW Loss” value was 0/10 and the “No. with ≧20% BW Loss or death” value is recorded as 0/10. Moreover, the “tolerability of dosing regimen” value in series [1] (setting [2]) is on record as “well-tolerated”. Also, in series [1] (40 mg/kg 2x/wk iv, mice), the “No. with ≧10% BW Loss” value is given as 0/10 and the “No. with ≧20% BW Loss or death” value was 2/10. In series [1] (40 mg/kg iv twice a week), the “tolerability of dosing regimen” value is “not tolerable” and the “mice died during treatment” value was found to be 2 mice.

For `CC[C@H](C)[C@H](NC(=O)[C@H](C)NC(=O)[C@H](C)NC(=O)[C@]1(C)CCCC=CCCCCCC[C@@](C)(NC(=O)[C@H](Cc2ccccc2)NC(=O)[C@@H](NC(=O)[C@H](CC(C)C)NC(C)=O)[C@@H](C)O)C(=O)N[C@@H](CCC(=O)O)C(=O)N[C@@H](Cc2ccc(C(=O)O)cc2)C(=O)N[C@@H](Cc2c[nH]c3ccccc23)C(=O)N[C@@H](C)C(=O)N[C@@H](CCC(N)=O)C(=O)N[C@@H](CC2CCC2)C(=O)N1)C(=O)N[C@H](C)C(N)=O` [SP249] (Ac-LTF[R8]E[Phe(4-COOH)]WAQ[Cba][S5]AAI[dA]-NH2; staple 4-11), the “mice died during treatment” value in series [1] ([…] iv three times per week) was 4 mice.

On to `CC(=O)N[C@@H](CC(C)C)C(=O)N[C@H](C(=O)N[C@@H](C)C(=O)N[C@]1(C)CCCCCCC=CCCC[C@@](C)(C(=O)N[C@@H](CO)C(=O)N[C@@H](C)C(=O)N[C@@H](C)C(N)=O)NC(=O)[C@H](CC2CCC2)NC(=O)[C@H](CCC(N)=O)NC(=O)[C@H](C)NC(=O)[C@H](Cc2c[nH]c3ccccc23)NC(=O)[C@H](Cc2ccc(O)cc2)NC(=O)[C@H](CCC(=O)O)NC1=O)[C@@H](C)O` [SP252], for which the “body weight loss or deaths” value in series [1] (setting [2]) is recorded as “no body weight loss or deaths noted”.

As usually defined, the IC50 is the concentration needed to halve the response being measured. Read a low IC50 as greater potency. For orientation: Ki means a measure of affinity in units of concentration, obtained from inhibition or displacement. On to `CCCC[C@H](NC(=O)[C@H](C)NC(=O)[C@H](C)NC(=O)[C@]1(C)CCCc2cn(nn2)CCCCCC[C@@](C)(NC(=O)[C@H](Cc2ccccc2)NC(=O)[C@@H](NC(=O)[C@H](CC(C)C)NC(C)=O)[C@@H](C)O)C(=O)N[C@@H](C)C(=O)N[C@@H](Cc2ccc(O)cc2)C(=O)N[C@@H](Cc2c[nH]c3ccccc23)C(=O)N[C@@H](C)C(=O)N[C@@H](CCC(N)=O)C(=O)N[C@@H](CC(C)C)C(=O)N1)C(=O)N[C@@H](C)C(N)=O` [SP449, Ac-LTF$4rn6AYWAQL$4a5AANleA-NH2], for which the IC50 at MDM2 (Table 26B, competitive FP) was less than 0.01 µM; at MDMX, less than 0.01 µM. Besides, the Ki on MDM2 (setting [3]) and on MDMX was less than 0.01 µM throughout.

`CC(=O)N[C@@H](CC(C)C)C(=O)N[C@H](C(=O)N[C@@H](Cc1ccccc1)C(=O)N[C@]1(C)CCCCCCn2cc(nn2)CCC[C@@](C)(C(=O)N[C@@H](C)C(=O)N[C@@H](C)C(=O)N[C@@H](C)C(=O)N[C@@H](C)C(=O)N[C@@H](C)C(=O)N[C@H](C)C(N)=O)NC(=O)[C@H](CC(C)C)NC(=O)[C@H](CCC(N)=O)NC(=O)[C@H](C)NC(=O)[C@H](Cc2c[nH]c3ccccc23)NC(=O)[C@H](Cc2ccc(O)cc2)NC(=O)[C@H](C)NC1=O)[C@@H](C)O` [SP450, Ac-LTF$4rn6AYWAQL$4a5AAAAAa-NH2] displayed a Ki on MDM2 of 0.1 to 1 µM.

`CC(=O)N[C@@H](CC(C)C)C(=O)N[C@H](C(=O)N[C@@H](Cc1ccccc1)C(=O)N[C@]1(C)CCCCCCn2cc(nn2)CCC[C@@](C)(C(=O)N[C@@H](C)C(=O)N[C@@H](C)C(=O)N[C@@H](C)C(=O)N[C@@H](C)C(=O)N[C@@H](C)C(=O)N[C@H](C)C(N)=O)NC(=O)[C@H](CC(C)C)NC(=O)[C@H](CCC(N)=O)NC(=O)[C@H](C)NC(=O)[C@H](Cc2c[nH]c3ccccc23)NC(=O)[C@H](Cc2ccc(O)cc2)NC(=O)[C@H](CCC(=O)O)NC1=O)[C@@H](C)O` [SP451, Ac-LTF$4rn6EYWAQL$4a5AAAAAa-NH2]: the Ki on MDM2 is 0.01 to 0.1 µM.

As for `CC(=O)N[C@@H](CC(C)C)C(=O)N[C@H](C(=O)N[C@@H](Cc1ccccc1)C(=O)N[C@]1(C)CCCCCCn2nncc2CCC[C@@](C)(C(=O)N[C@@H](CO)C(=O)N[C@@H](C)C(=O)N[C@@H](C)C(N)=O)NC(=O)[C@H](CC2CCC2)NC(=O)[C@H](CCC(N)=O)NC(=O)[C@H](C)NC(=O)[C@H](Cc2c[nH]c3ccccc23)NC(=O)[C@H](Cc2ccc(O)cc2)NC(=O)[C@H](CCC(=O)O)NC1=O)[C@@H](C)O` [SP456, Ac-LTF$5rn6EYWAQCba$5a5SAA-NH2], the Ki on MDM2 (setting [3]) was less than 0.01 µM; at MDMX, 0.01 to 0.1 µM.

Consider `CC(=O)N[C@@H](CC(C)C)C(=O)N[C@H](C(=O)N[C@@H](Cc1ccccc1)C(=O)N[C@]1(C)CCCCCCn2nnc(c2I)CCC[C@@](C)(C(=O)N[C@@H](CO)C(=O)N[C@@H](C)C(=O)N[C@@H](C)C(N)=O)NC(=O)[C@H](CC2CCC2)NC(=O)[C@H](CCC(N)=O)NC(=O)[C@H](C)NC(=O)[C@H](Cc2c[nH]c3ccccc23)NC(=O)[C@H](Cc2ccc(O)cc2)NC(=O)[C@H](CCC(=O)O)NC1=O)[C@@H](C)O` [SP457, Ac-LTF$4rn6EYWAQCba5I-$4a5SAA-NH2], for which the Ki at MDM2 (setting [3]) and at MDMX was less than 0.01 µM in each case.

Take `CC(=O)N[C@@H](CC(C)C)C(=O)N[C@H](C(=O)N[C@@H](C)C(=O)N[C@]1(C)CCCCCCn2nncc2CCC[C@@](C)(C(=O)N[C@@H](CO)C(=O)N[C@@H](C)C(=O)N[C@@H](C)C(N)=O)NC(=O)[C@H](CC2CCC2)NC(=O)[C@H](CCC(N)=O)NC(=O)[C@H](C)NC(=O)[C@H](Cc2c[nH]c3ccccc23)NC(=O)[C@H](Cc2ccc(O)cc2)NC(=O)[C@H](CCC(=O)O)NC1=O)[C@@H](C)O` [SP459, Ac-LTA$5rn6EYWAQCba$5a5SAA-NH2]: the Ki on MDM2 (setting [3]) and at MDMX was greater than 1 µM throughout.

As for `CC(=O)N[C@@H](CC(C)C)C(=O)N[C@H](C(=O)N[C@@H](C)C(=O)N[C@]1(C)CCCCCCn2cc(nn2)CCC[C@@](C)(C(=O)N[C@@H](CO)C(=O)N[C@@H](C)C(=O)N[C@@H](C)C(N)=O)NC(=O)[C@H](CC2CCC2)NC(=O)[C@H](CCC(N)=O)NC(=O)[C@H](C)NC(=O)[C@H](Cc2c[nH]c3ccccc23)NC(=O)[C@H](Cc2ccc(O)cc2)NC(=O)[C@H](CCC(=O)O)NC1=O)[C@@H](C)O` [SP460, Ac-LTA$4rn6EYWAQCba$4a5SAA-NH2], the Ki at MDM2 (setting [3]) and at MDMX was greater than 1 µM in each case.

For `CC(=O)N[C@@H](CC(C)C)C(=O)N[C@H](C(=O)N[C@@H](Cc1ccccc1)C(=O)N[C@]1(C)CCCCCCn2nnc(c2-c2ccccc2)CCC[C@@](C)(C(=O)N[C@@H](CO)C(=O)N[C@@H](C)C(=O)N[C@@H](C)C(N)=O)NC(=O)[C@H](CC2CCC2)NC(=O)[C@H](CCC(N)=O)NC(=O)[C@H](C)NC(=O)[C@H](Cc2c[nH]c3ccccc23)NC(=O)[C@H](Cc2ccc(O)cc2)NC(=O)[C@H](CCC(=O)O)NC1=O)[C@@H](C)O` [SP465, Ac-LTF$4rn6EYWAQCba5Ph-$4a5SAA-NH2], the Ki at MDM2 (setting [3]) and on MDMX was less than 0.01 µM throughout.
